Like-named read-outs stand apart in the source and are kept apart here.
System: Staphylococcus hominis
Assay: Inhibition test: growth of Staphylococcus hominis in Luria broth liquid culture, plate count versus control
Format: cell-based
Details: for log reduction at 0.2 % / log reduction at 0.5 % / log reduction at 0.1 % / log reduction at 0.05 %: Staphylococcus hominis, read-out: Hemmleistung als Differenz zur Kontrolle in log-Stufen (RF-Wert); for Hemmleistung als Differenz zur Kontrolle in log-Stufen (RF-Wert): 0,5 Gew.-% Aktivsubstanz; for Hemmleistung als Differenz zur Kontrolle in log-Stufen (RF-Wert) / log reduction at 0.1 % / log reduction at 0.05 %: 37°C; for log reduction at 0.1 %: 0,1 Gew.-% Aktivsubstanz; for log reduction at 0.05 %: 0,05 Gew.-% Aktivsubstanz
Method: Eine Luria-broth-Vorkultur (1 Gew.-% Trypton, 0,5 Gew.-% Hefeextrakt, 0,5 Gew.-% NaCl) von Staphylococcus hominis wurde mit Medium auf eine OD600 von 0,1 (entspricht 10^5-10^7 cfu/ml) eingestellt und in 50 ml-Aliquots auf Erlenmeyer-Kolben verteilt. Dazu wurden die zu testenden Wirkstoffe gegeben, so dass sie in den in Tabelle 1 angegebenen Konzentrationen vorlagen, und die Kultur mit 100 Upm bei 37°C inkubiert. Öllösliche Stoffe wie Bisabolol wurden mit 0,1% Tween emulgiert und gegen eine entsprechende Kontrolle getestet. Nach 4, 8 und 24 h erfolgte eine Keimzahlbestimmung über Ausplattieren, wobei die Hemmleistung der einzelnen Wirkstoffe als RF-Wert (Differenz zur Kontrolle in log-Stufen) angegeben ist. Tabelle 1

## CCCCC(CC)COCC(O)CO (stereo not drawn) [Sensiva SC 50, α-Mono-(2-ethylhexyl)glycerinether]
0 h
  log reduction at 0.2 %: 0
  log reduction at 0.5 %: 0
4 h
  log reduction at 0.2 %: 5.77
  log reduction at 0.5 %: 6.14
8 h
  log reduction at 0.2 %: 6.19
  log reduction at 0.5 %: 6.63

## Aluminiumchlorhydrat
Zeit 0 h
  Hemmleistung als Differenz zur Kontrolle in log-Stufen (RF-Wert): 0 log-Stufen
Zeit 4 h
  Hemmleistung als Differenz zur Kontrolle in log-Stufen (RF-Wert): 6,07 log-Stufen
Zeit 8 h
  Hemmleistung als Differenz zur Kontrolle in log-Stufen (RF-Wert): 6,34 log-Stufen

## CC(C)=CCC[C@](C)(O)C1CC=C(C)CC1 (stereo partly drawn) [(-)-α-Bisabolol]
Zeit 0 h
  log reduction at 0.1 %: 0
  log reduction at 0.05 %: 0
Zeit 4 h
  log reduction at 0.1 %: 1.98
  log reduction at 0.05 %: 1.3
Zeit 8 h
  log reduction at 0.1 %: 2.6
  log reduction at 0.05 %: 1.75
